One data set concerns chymotrypsin. The experiment in a line: Protease resistance: HPLC half-lives of peptides exposed to chymotrypsin.
Another data set has as its system MDA-MB 231. Type of data set: cell-based, human. From the text:
(§1) A whole-cell BH3 profiling experiment quantifies the dependence of cancer cell mitochondrial integrity on specific anti-apoptotic proteins and can be predictive of cellular responses to chemotherapy (Ryan, J. A.; Brunelle, J. K.; Letai, A. Proc. Natl. Acad. Sci. 2010, 107 (29), 12895 and Ryan, J. A; Letai, A. Methods 2013, 61(2), 156). In this assay, permeabilized cells are stained with dye JC1 to monitor mitochondrial membrane integrity in response to increasing doses of BH3 peptides. We used this assay to test the specificity of our Mcl-1-binding stapled peptides in cell lines with different established dependencies on Bcl-xL and Mcl-1. Mcl-1/Myc 2640 is an engineered murine leukemia cell line overexpressing murine Mcl-1 and Myc, and MDA-MB 231 is a human breast cancer cell line with a primed Bcl-xL-dependent pro-file (Brunelle, J. K.; Ryan, J.; Yecies, D.; Opferman, J. T.; Letai, A. J Cell Biol. 2009, 187 (3), 429 and Ryan, J. A.; Brunelle, J. K.; Letai, A. Proc. Natl. Acad. Sci. 2010, 107 (29), 12895). By BH3 profiling using native BH3 peptides from BAD and NOXAA, we confirmed cell line dependencies on these anti-apoptotic proteins (FIG. 3). […] Mcl-1 2640 cell line is dependent on Mcl-1 whereas MDA-MB-231 is dependent on Bcl-xL, as indicated by response to NoxA and Bad, respectively. […]

For a further data set, the system named is Mcl-1/Myc 2640. Type of data set: cell-based, murine.
Description: as §1

The test system of the next data set is Bax/Bak deficient cells. In words: Whole-cell BH3 profiling in Bax/Bak deficient cells (BBDL). As to conditions: Bax/Bak independent activity indicates non-specific toxicity. In kind it is cell-based.
The next data set addresses Mcl-1 (Homo sapiens, UniProt Q07820). In words: Competition fluorescence polarization/anisotropy assay with fluoresceinated Bim BH3 peptide for binding to Mcl-1. The text has this: (§2) The standard errors reported are over three experiments.
Position 2e is usually conserved as small (alanine, glycine, serine) in natural BH3 sequences.

The nature of data set [1]: Circular dichroism spectroscopy (helicity). Type of data set: physicochemical. The following applies: more helical than MS1. The protocol:
as §2
The secondary structure of selected stapled peptides was assessed by circular dichroism (CD) spectroscopy (FIG. 1(c)). […] Therefore, the increases in helicity can be attributed to both helix-inducing substitutions: Aib at 2e and Cha at 3a (Armstrong, K. M.; Fairman, R.; Baldwin, R. L. J. Mol Biol. 1993, 230 (1), 284. and Venkatraman, J.; Shankaramma, S. C.; Balaram, P. Chem. Rev. 2001, 101 (10), 3131).
(CD spectra are sensitive to the conformation of chiral molecules.)

pEC50: −log10 of the molar value. Numbered stars: 1 amine (or outer) side, 2 acyl side, 3 side chain; on linkers, the order of the positions; unused ones are H or OH. Bridge positions count the residues as written; N and C are the ends. Square brackets hold non-standard residues; d marks the D form. Peptide text beside a SMILES is read from it. ξ: configuration not given here. ξαMeNle(6-ylidene) = CC(CCCC=[*:3])(N[*:1])C(=O)[*:2]; Cha = N[C@@H](CC1CCCCC1)C(=O)O; Nle = CCCC[C@H](N)C(=O)O; Aib = CC(C)(N)C(=O)O

Sequence of Mcl-1 (Q07820 whole entry): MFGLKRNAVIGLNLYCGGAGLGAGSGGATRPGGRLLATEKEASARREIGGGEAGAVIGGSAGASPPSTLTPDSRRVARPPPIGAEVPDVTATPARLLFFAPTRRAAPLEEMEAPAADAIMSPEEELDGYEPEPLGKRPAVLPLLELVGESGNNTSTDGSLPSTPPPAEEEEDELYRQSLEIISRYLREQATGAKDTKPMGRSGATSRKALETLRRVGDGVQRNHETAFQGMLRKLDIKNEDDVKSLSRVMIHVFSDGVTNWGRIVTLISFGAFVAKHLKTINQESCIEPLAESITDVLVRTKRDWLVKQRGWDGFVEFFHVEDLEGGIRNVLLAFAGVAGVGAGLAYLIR

Regarding `CCCC[C@H](NC(=O)[C@H](Cc1c[nH]c2ccccc12)NC(=O)[C@@H](N)[C@@H](C)CC)C(=O)NC(C)(C)C(=O)N[C@@H](CCC(N)=O)C(=O)NCC(=O)N[C@@H](CC(C)C)C(=O)N[C@@H](CCCNC(=N)N)C(=O)N[C@@H](CCCNC(=N)N)C(=O)N[C@@H](CC(C)C)C(=O)NCC(=O)N[C@@H](CC(=O)O)C(=O)N[C@@H](CCC(=O)O)C(=O)N[C@H](C(=O)NC1(C)CCCC=CCCCC(C)(C(=O)N[C@@H](CCCNC(=N)N)C(=O)N[C@@H](CCCNC(=N)N)C(N)=O)NC(=O)[C@H](Cc2ccc(O)cc2)NC(=O)[C@H](Cc2ccc(O)cc2)NC(=O)[C@H](C)NC1=O)[C@@H](C)CC` (stereo partly shown) [M2d, IWBAibQGLRRLGDEIXAYYXRR] (H-IW[Nle][Aib]QGLRRLGDEI[ξαMeNle(6-ylidene)]AYY[ξαMeNle(6-ylidene)]RR-NH2; staple 15-19), the “half-lives (protease resistance) compared to M1d” value in the data set on chymotrypsin is listed as “longer half-lives”.
The pEC50 is the EC50 on a negative log10 scale, so that one unit is a factor of ten. A higher pEC50 goes with a small EC50. On to `CCCC[C@H](NC(=O)[C@H](Cc1c[nH]c2ccccc12)NC(=O)[C@@H](N)[C@@H](C)CC)C(=O)NC(C)(C)C(=O)N[C@@H](CCC(N)=O)C(=O)NCC(=O)N[C@@H](CC1CCCCC1)C(=O)N[C@@H](CCCNC(=N)N)C(=O)N[C@@H](CCCNC(=N)N)C(=O)N[C@@H](CC(C)C)C(=O)NCC(=O)N[C@@H](CC(=O)O)C(=O)N[C@@H](CCC(=O)O)C(=O)N[C@H](C(=O)NC1(C)CCCC=CCCCC(C)(C(=O)N[C@@H](CCCNC(=N)N)C(=O)N[C@@H](CCCNC(=N)N)C(N)=O)NC(=O)[C@H](Cc2ccc(O)cc2)NC(=O)[C@H](Cc2ccc(O)cc2)NC(=O)[C@H](C)NC1=O)[C@@H](C)CC` (stereo partly shown) [M3d, IWBAibQGChaRRLGDEIXAYYXRR] (H-IW[Nle][Aib]QG[Cha]RRLGDEI[ξαMeNle(6-ylidene)]AYY[ξαMeNle(6-ylidene)]RR-NH2; staple 15-19), for which the “half-lives (protease resistance) compared to M1d” value in the data set with chymotrypsin is reported as “longer half-lives”. In addition, the pEC50 in the data set with MDA-MB 231 was under 5.30; in the data set on Mcl-1/Myc 2640, 7.52.
Turning to IWBTQGLRRLGDEIXAYYXRR [M1d], the “activity in Bax/Bak deficient cells” value in the data set on Bax/Bak deficient cells is recorded as “Bax/Bak independent activity”. In addition, in the data set with Mcl-1, the “Mcl-1-binding affinity in comparison to MS1” value is given as “improved”. Also, the “helicity in solution relative to MS1” value in data set [1] is recorded as about 3 fold.

The values above are taken from patent US20190077840A1, “SELECTIVE MCL-1 BINDING PEPTIDES” (MASSACHUSETTS INSTITUTE OF TECHNOLOGY, priority 2015, published 2019).
